Results published in patent US9346794B1, “Substituted 4-pyridones and their use as inhibitors of neutrophil elastase activity” (Boehringer Ingelheim International GmbH, priority 2012, dated 2016).

target: Human neutrophil elastase (Homo sapiens (Human), UniProt P08246); experiment: Human Neutrophil Elastase Assay; format: biochemical; settings: substrate MeOSuc-Ala-Ala-Pro-Val-AMC 250 μM, fluorescence, pH 7.5
Procedure: Human Neutrophil Elastase Assay
All other materials were of the highest grade commercially available.
The following buffers were used: Compound buffer: 100 mM Tris, 500 mM NaCl, adjusted to pH 7.5; Assay buffer: 100 mM Tris, 500 mM NaCl, adjusted to pH 7.5, containing 0.01% BSA.
Assay conditions: Test compounds were prediluted in DMSO and subsequently in compound buffer (5% DMSO final). […] After inactivation of the enzyme, fluorescence intensities were measured at 380 nm excitation and 460 nm emission wavelengths.
Each plate contains wells with a high value control (DMSO+enzyme+substrate) and wells with a low value control (DMSO+inactivated enzyme+substrate). IC50 values were estimated using a sigmoidal concentration response curve with variable slope. Means of low values were taken as 0%, means of high values as 100%. IC50 values of selected compound in the Neutrophil Elastase assay: […]

Human neutrophil elastase, sequence (P08246 30-247): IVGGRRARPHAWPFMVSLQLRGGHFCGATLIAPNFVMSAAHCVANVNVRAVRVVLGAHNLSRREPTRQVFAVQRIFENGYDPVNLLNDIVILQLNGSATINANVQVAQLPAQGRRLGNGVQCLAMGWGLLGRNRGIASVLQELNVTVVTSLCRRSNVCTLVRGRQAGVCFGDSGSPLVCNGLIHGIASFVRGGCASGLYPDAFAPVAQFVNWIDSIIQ

IC50 [nM]	SMILES
< 1	CCn1cc(C(=O)NCc2ccc(S(=O)(=NC#N)C(C)C)cc2)c(=O)c(-c2cccc(C(F)F)c2)c1C (single isomer, unassigned) [Example 30B]
1.2	CCn1cc(C(=O)NCc2ccc(S(=O)(CC)=NC#N)cc2)c(=O)c(-c2cccc(C(F)(F)F)c2)c1C (stereo not drawn) [Example 10]
2.2	CCn1cc(C(=O)NCc2ccc(S(=O)(CC)=NC#N)cc2)c(=O)c(-c2cccc(C(F)F)c2)c1C (single isomer, unassigned) [Example 29A]
1.1	Cc1c(-c2cccc(C(F)F)c2)c(=O)c(C(=O)NCc2ccc(S(C)(=O)=NC#N)c(F)c2)cn1C(C)C (stereo not drawn) [Example 32]
4.3	Cc1c(-c2cccc(C(F)(F)F)c2)c(=O)c(C(=O)NCc2ccc(S(C)(=O)=NC#N)cc2)cn1-c1ccccn1 (single isomer, unassigned) [Example 25]
12	Cc1c(-c2ccnc(C(F)(F)F)c2)c(=O)c(C(=O)NCc2ccc(S(C)(=O)=NC#N)cc2)cn1C(C)C (single isomer, unassigned) [Example 3A, 1-Isopropyl-2-methyl-4-oxo-2′-trifluoromethyl-1,4-dihydro-[3,4′]-bipyridinyl-5-carboxylic acid 4-(N-cyano-S-methylsulfonimidoyl)-benzylamide]
1.2	Cc1c(-c2cccc(C(F)(F)F)c2)c(=O)c(C(=O)NCc2ccc(S(=O)(=NC#N)C(C)C)cc2)cn1C1CC1 (single isomer, unassigned) [Example 22B]
49.3	CN=S(C)(=O)c1ccc(CNC(=O)c2cn(C(C)C)c(C)c(-c3cccc(C(F)(F)F)c3)c2=O)cc1 (stereo not drawn) [Example 67, 1-Isopropyl-6-methyl-4-oxo-5-(3-trifluoromethyl-phenyl)-1,4-dihydro-pyridine-3-carboxylic acid 4-(N,S-dimethylsulfonimidoyl)-benzylamide]
4.7	Cc1ccc(-n2cc(C(=O)NCc3ccc(S(C)(=O)=NC#N)cc3)c(=O)c(-c3cccc(C(F)(F)F)c3)c2C)cn1 (stereo not drawn) [Example 58]
2.2	Cc1cc(S(C)(=O)=NC#N)ccc1CNC(=O)c1cn(C(C)C)c(C)c(-c2cccc(C(F)(F)F)c2)c1=O (stereo not drawn) [Example 15]
13.4	Cc1c(-c2ccnc(C(F)(F)F)c2)c(=O)c(C(=O)NCc2ccc(S(C)(=O)=NC#N)cc2)cn1-c1ccccc1 (single isomer, unassigned) [Example 43]
3.3	Cc1c(-c2cccc(C(F)(F)F)c2)c(=O)c(C(=O)NCc2ccc(S(C)(=O)=NC#N)cc2)cn1-c1cccnc1 (single isomer, unassigned) [Example 26]
1.3	Cc1c(-c2cccc(C(F)F)c2)c(=O)c(C(=O)NCc2ccc(S(C)(=O)=NC#N)cc2)cn1C(C)C (stereo not drawn) [Example 1, 5-(3-Difluoromethyl-phenyl)-1-isopropyl-6-methyl-4-oxo-1,4-dihydro-pyridine-3-carboxylic acid 4-(N-cyano-S-methylsulfonimidoyl)-benzylamide]
1.8	CCn1cc(C(=O)NCc2ccc(S(=O)(=NC#N)C(C)C)cc2)c(=O)c(-c2cccc(C(F)F)c2)c1C (single isomer, unassigned) [Example 30A]
7.3	Cc1c(-c2cccc(C(F)(F)F)c2)c(=O)c(C(=O)NCc2ccc(S(C)(=O)=NS(C)(=O)=O)cc2)cn1C(C)C (stereo not drawn) [Example 17]
